“And” between values parts separate entries of the source, which are not always exact repeats. Equal values may be shown once.
What was measured:
[1] = test system: HEK293T cells; assay: Cytotoxicity: necrosis induction (red fluorescent dye for permeable plasma membranes); assay type: cell-based; conditions: 1 µM, 24 h, necrotic cell count normalized to 0.1% DMSO, single replicates;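 further: compounds applied in DMEM high glucose with 0.1% FCS and 0.1% DMSO, necrotic HEK293T cells counted by red staining of cells whose plasma membranes had become permeable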
[2] = test system: Gal4-VP16; assay type: cell-based; conditions: 1 µM; vs. DMSO ctrl; single replicates n=1-3
Method: Five hours after transfection, the cells were incubated with the NR3 CG compound candidates at the recommended concentrations by changing the medium to Opti-MEM supplemented with penicillin (100 µ/mL) and streptomycin (100 µg/mL) additionally containing 0.1% DMSO and the respective test compound or 0.1% DMSO alone as untreated control. Firefly (reporter) and renilla (control) luminescence were measured after 14–16 h incubation using the Dual-Glo® Luciferase Assay System (Promega, Fitchburg, Wisconsin, USA; #E2980) according to manufacturer’s protocol on a Tecan Spark® 10M multimode microplate reader (Tecan Group AG, Männedorf, Switzerland). To obtain relative light units (RLU) firefly luminescence was divided by renilla luminescence and multiplied by 1000. Fold activation was obtained by dividing the mean RLU of a test sample by the mean RLU of the DMSO (0.1%) control. Experiments were performed in singlets in at least three biologically independent repeats.
are labeled according to their mode of action (yellow - agonist, grey - antagonist, grey with label D - degrader) and grouped by their
NR3 subfamily main targets.
reporter activity at the indicated concentrations expressed as mean fold reporter gene activity (n=3).

[3] = biological target: T1, ABL1 (Homo sapiens, UniProt P00519); assay: Liability panel screening by DSF: ABL1; assay type: binding; conditions: DSF, 20 µM, n=2; read-out: Mean ΔTM ABL1
T1 construct: made in house
In short: (§1)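 Thermal shift: in-house recombinant protein at 2 µM in 10 mM HEPES pH 7.5 with 500 mM NaCl, SYPRO Orange 1:1000, heated at 3 °C/min to 85 °C in technical duplicates. Tm is the Boltzmann inflection point, reported as ∆Tm in K.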

[4] = biological target: T2, AURKA (Homo sapiens, UniProt O14965); assay: Liability panel screening by DSF: AURKA; assay type: binding; conditions: DSF, 20 µM, n=2; read-out: Mean ΔTM AURKA
T2 construct: made in house
T2 sequence (O14965 1-403): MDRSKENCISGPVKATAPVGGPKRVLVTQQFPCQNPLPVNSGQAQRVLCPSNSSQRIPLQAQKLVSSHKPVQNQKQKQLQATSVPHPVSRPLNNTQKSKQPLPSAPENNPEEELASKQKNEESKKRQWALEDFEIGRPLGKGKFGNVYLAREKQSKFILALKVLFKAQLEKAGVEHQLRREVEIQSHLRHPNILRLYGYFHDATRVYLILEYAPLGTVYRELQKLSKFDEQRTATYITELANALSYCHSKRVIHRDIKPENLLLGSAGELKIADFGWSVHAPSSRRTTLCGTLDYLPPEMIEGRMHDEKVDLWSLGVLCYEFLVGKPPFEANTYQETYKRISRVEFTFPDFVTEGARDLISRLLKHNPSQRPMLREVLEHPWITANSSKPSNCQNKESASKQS
In short: as §1

[5] = biological target: T3, CDK2 (Homo sapiens, UniProt P24941); assay: Liability panel screening by DSF: CDK2; assay type: binding; conditions: DSF, 20 µM, n=2; read-out: Mean ΔTM CDK2
T3 construct: made in house
In short: as §1

[6] = biological target: T4, FGFR3 (Homo sapiens, UniProt P22607); assay: Liability panel screening by DSF: FGFR3; assay type: binding; conditions: DSF, 20 µM, n=2; read-out: Mean ΔTM FGFR3
T4 construct: made in house
In short: as §1

[7] = biological target: T5, GSK3B (Homo sapiens, UniProt P49841); assay: Liability panel screening by DSF: GSK3B; assay type: binding; conditions: DSF, 20 µM, n=2; read-out: Mean ΔTM GSK3B
T5 construct: made in house

[8] = biological target: T6, BRD4 (Homo sapiens, UniProt O60885); assay: Liability panel screening by DSF: BRD4; assay type: binding; conditions: DSF, 20 µM, n=2; read-out: Mean ΔTM BRD4
T6 construct: This panel comprised ten highly ligandable kinases and bromodomains; made in house
In short: as §1

[9] = biological target: T7, BRPF1 (Homo sapiens, UniProt P55201); assay: Liability panel screening by DSF: BRPF1; assay type: binding; conditions: DSF, 20 µM, n=2; read-out: Mean ΔTM BRPF1
T7 construct: This panel comprised ten highly ligandable kinases and bromodomains; made in house
T7 sequence (P55201 628-732 limits assumed): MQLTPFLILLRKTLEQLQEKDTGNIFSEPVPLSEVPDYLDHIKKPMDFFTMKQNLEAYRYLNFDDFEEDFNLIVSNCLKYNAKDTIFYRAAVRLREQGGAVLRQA
In short: as §1

[10] = biological target: T8, CSNK1D (Homo sapiens, UniProt P48730); assay: Liability panel screening by DSF: CSNK1D; assay type: binding; conditions: DSF, 20 µM, n=2; read-out: Mean ΔTM CSNK1D
T8 construct: made in house
In short: as §1

[11] = biological target: T9, MAPK1 (Homo sapiens, UniProt P28482); assay: Liability panel screening by DSF: MAPK1; assay type: binding; conditions: DSF, 20 µM, n=2; read-out: Mean ΔTM MAPK1
T9 construct: made in house
In short: as §1

[12] = biological target: T10, TRIM24 (Homo sapiens, UniProt O15164); assay: Liability panel screening by DSF: TRIM24; assay type: binding; conditions: DSF, 20 µM, n=2; read-out: Mean ΔTM TRIM24
T10 construct: This panel comprised ten highly ligandable kinases and bromodomains; made in house
T10 sequence (O15164 899-1004 limits assumed): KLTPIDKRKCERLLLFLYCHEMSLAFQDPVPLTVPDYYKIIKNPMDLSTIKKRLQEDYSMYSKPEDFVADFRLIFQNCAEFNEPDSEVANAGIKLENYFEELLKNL
In short: as §1

[13] = test system: NF-κB activity in HEK293 NF-κB reporter cells; assay: NF-kB activity assay (GFP reporter, ionomycin/PMA); assay type: cell-based; conditions: for Mean NFκB response: n=3; for NF-κB activity (inflammatory response to ionomycin/PMA): HEK293 NF-κB reporter cells, compounds at recommended concentrations, imaged over 24 h, n = 3
In short: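 Reporter readout: GFP-expressing cells normalized to confluence, imaged every 90 min across 24 h after ionomycin (100 ng/mL)/PMA (10 ng/mL) stimulation of HEK293 cells pre-treated 4 h with compound (0.1% DMSO); triplicate independent experiments.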

[14] = test system: ATF6 activity in Hela ATF6 reporter cells; assay: Endoplasmic reticulum stress assay (ATF6 Renilla luciferase reporter, tunicamycin); assay type: cell-based; conditions: for ATF6 activity (tunicamycin-induced endoplasmic reticulum stress): Hela ATF6 reporter cells, tunicamycin 100 ng/mL, 18 h, compounds at recommended concentrations, n = 5; for activity at 1 µM: Homo sapiens, HeLa, single replicates n=1 to n=5, read-out: ER stress [rel. ATF6 activity]
In short: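 ER stress was induced by 100 ng/mL tunicamycin added 4 h after compound (0.1% DMSO) to HeLa ATF6 reporter cells. After 18 h more, Renilla luciferase signal was read and expressed relative to DMSO control, n=5 biological replicates.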

[15] = test system: NR3C1 (GR); conditions: (lit.); ref Supplementary Table 1; read-out: Potency [nM] EC50, NR3C1 (GR); cited from earlier work
[16] = test system: HEK293T cells; assay: Cytotoxicity: metabolic activity (WST-8 / CCK-8 assay); conditions: 1 µM; HEK293T, 24 h; WST-8; normalized to 0.1% DMSO; single replicates
Method: Cells were incubated with the test compounds at the indicated concentrations solubilized with 0.1% DMSO for 24 h. Growth-rate was determined based on the change in confluence over 24 h normalized to the change in confluence of cells treated with the 0.1% DMSO control (n = 10). Metabolic activity was determined with a water-soluble tetrazolium-8 (WST-8) assay (n = 8) after 24 h treatment. Apoptotic cells were detected with a fluorogenic DNA dye coupled to the caspase-3/7 recognition sequence (DEVD) after 24 h treatment and the apoptotic cell count was normalized to 0.1% DMSO treated cells (n = 6).
HEK293T cells (German Collection of Microorganisms and Cell Culture GmbH, DSMZ; #ACC305) were cultured in DMEM high glucose, supplemented with 10% fetal calf serum (FCS), sodium pyruvate (1 mM), penicillin (100 µ/mL) and streptomycin (100 µg/mL) at 37 °C and 5% (v/v) CO2, and seeded in pre-coated (10 µg/mL collagen G solution (Merck KgaA; #L7213) for 30 min at 37 °C) 96-well plates (2 × 10^5 cells per well). After 24 h, the cells were treated with the respective NR3 CG compound candidate at the recommended concentration, bexarotene (100 µM) or doxorubicin (30 µM) as positive controls in DMEM high glucose supplemented with 0.1% FCS, penicillin (100 µ/mL), streptomycin (100 µg/mL) and 0.1% DMSO, or 0.1% DMSO alone as an untreated control. Each sample was prepared in at least four biologically independent replicates. […] Thereafter, the medium was aspirated and the cells were incubated for 3 h with 90 µL DMEM high glucose supplemented with 0.2% FCS, penicillin (100 µ/mL) and streptomycin (100 µg/mL) and additionally containing 10 µL Cell Counting Kit 8 solution (CCK-8; MedChemExpress, Monmouth Junction, New York, USA; #HY-K0301), and absorbance was measured at 1 h, 2 h and 3 h of incubation at 450 nm on a Tecan Spark Cyto to assess metabolic activity of the cells. Before drug administration, after the first medium exchange, 24 h after drug administration, and after fluorescence imaging cell confluence was assessed using the Tecan Spark Cyto, to account for changes in cell confluence due to drug administration and cell handling. Compound effects on cell confluence, apoptosis, metabolic activity and necrosis were normalized to the vehicle control of each biological replicate individually.

[17] = test system: HEK293T cells; assay: Cytotoxicity: growth-rate (change in confluence over 24 h); conditions: 1 µM, normalized to 0.1% DMSO control, single replicates (n=1...)
[18] = test system: HEK293T cells; assay: Cytotoxicity: apoptosis induction (caspase-3/7 DEVD fluorogenic DNA dye); conditions: 1 µM; HEK293T, 24 h; apoptotic cell count normalized to 0.1% DMSO; single replicates

T9 sequence (P28482 whole entry, species assumed): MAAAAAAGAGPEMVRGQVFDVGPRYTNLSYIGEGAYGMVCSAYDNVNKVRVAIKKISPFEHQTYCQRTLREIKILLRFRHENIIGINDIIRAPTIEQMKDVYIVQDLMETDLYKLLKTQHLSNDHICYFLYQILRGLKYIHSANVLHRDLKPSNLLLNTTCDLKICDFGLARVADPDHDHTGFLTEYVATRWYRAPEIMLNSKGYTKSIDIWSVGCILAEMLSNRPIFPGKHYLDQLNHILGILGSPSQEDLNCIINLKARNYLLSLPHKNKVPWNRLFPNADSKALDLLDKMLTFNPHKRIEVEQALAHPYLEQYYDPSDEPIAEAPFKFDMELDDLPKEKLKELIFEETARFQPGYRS
T8 sequence (P48730 whole entry, species assumed): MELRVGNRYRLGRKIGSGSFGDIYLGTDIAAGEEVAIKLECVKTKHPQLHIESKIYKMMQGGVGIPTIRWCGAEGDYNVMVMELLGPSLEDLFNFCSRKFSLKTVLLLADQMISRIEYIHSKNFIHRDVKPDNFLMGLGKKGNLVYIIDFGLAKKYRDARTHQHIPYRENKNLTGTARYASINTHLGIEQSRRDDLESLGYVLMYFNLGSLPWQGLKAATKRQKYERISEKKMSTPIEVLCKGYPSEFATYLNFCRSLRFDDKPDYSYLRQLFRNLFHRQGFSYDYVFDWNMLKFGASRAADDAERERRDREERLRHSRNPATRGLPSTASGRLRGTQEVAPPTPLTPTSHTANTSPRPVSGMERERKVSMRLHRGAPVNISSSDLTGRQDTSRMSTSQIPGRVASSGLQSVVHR
T4 sequence (P22607 23-806, species assumed): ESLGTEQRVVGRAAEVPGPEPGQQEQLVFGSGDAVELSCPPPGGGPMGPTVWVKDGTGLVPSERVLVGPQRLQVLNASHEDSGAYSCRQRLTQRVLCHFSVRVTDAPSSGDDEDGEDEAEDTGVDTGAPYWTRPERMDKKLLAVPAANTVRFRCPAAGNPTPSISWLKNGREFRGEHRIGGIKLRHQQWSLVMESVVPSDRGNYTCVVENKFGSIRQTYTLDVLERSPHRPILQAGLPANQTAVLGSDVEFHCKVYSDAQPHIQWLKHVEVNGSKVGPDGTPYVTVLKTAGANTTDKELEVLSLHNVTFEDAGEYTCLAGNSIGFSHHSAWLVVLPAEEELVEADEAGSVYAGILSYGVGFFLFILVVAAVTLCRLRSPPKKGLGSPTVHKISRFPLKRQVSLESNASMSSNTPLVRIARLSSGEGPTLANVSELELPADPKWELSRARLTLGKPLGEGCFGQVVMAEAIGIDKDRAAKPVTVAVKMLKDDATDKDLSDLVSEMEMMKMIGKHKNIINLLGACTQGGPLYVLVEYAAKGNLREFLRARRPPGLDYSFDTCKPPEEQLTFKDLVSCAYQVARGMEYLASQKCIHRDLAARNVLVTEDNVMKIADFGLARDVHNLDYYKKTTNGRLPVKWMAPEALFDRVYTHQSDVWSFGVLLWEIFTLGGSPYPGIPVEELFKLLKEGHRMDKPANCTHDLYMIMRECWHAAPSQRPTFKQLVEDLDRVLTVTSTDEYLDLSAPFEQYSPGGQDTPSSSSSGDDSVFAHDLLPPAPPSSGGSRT
T1 sequence (P00519 whole entry, species assumed): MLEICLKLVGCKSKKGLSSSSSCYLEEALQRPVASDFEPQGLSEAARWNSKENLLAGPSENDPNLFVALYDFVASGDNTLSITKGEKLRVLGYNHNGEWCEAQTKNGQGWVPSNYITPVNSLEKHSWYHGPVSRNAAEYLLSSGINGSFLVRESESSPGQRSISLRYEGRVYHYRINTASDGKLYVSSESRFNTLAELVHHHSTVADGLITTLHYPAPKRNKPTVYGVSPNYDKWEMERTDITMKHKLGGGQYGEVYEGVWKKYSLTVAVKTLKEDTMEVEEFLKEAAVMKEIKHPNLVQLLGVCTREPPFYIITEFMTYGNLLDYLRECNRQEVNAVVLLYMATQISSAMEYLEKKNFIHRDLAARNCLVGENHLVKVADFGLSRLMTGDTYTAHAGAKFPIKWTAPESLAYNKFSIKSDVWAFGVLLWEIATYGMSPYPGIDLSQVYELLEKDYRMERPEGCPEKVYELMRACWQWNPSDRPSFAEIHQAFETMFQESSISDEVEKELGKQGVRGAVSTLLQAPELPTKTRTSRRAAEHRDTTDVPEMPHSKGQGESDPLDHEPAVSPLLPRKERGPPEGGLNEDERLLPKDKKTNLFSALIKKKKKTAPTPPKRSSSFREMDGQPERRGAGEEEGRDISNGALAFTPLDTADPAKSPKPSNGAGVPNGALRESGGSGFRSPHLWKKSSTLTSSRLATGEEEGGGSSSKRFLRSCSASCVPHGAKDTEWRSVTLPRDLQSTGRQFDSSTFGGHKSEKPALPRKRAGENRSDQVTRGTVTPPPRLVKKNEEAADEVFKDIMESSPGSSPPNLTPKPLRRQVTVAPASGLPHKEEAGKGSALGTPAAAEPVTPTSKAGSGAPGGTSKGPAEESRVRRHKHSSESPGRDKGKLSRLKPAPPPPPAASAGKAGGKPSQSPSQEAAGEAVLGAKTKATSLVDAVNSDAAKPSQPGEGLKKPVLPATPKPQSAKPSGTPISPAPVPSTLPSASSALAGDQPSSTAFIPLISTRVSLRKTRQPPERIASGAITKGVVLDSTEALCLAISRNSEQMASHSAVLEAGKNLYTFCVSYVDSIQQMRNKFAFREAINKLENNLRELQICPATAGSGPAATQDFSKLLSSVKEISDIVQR
T5 sequence (P49841 whole entry, species assumed): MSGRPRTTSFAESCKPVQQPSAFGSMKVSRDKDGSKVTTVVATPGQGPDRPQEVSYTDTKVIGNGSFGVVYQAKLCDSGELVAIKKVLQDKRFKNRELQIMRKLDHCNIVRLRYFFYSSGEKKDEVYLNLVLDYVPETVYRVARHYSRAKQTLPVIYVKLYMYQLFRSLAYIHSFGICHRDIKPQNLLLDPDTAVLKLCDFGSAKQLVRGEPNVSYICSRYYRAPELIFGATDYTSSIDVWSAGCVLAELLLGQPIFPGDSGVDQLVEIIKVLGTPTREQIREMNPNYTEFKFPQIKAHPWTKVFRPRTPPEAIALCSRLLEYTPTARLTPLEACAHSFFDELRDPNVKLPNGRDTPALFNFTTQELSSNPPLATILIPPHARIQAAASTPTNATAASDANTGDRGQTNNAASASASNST

Row | Compound | Necrosis induction [NI] [1] | VP16 control [fold reporter gene activity] [2] | ΔTm at 20 µM [3] [°C] | ΔTm at 20 µM [4] [°C] | ΔTm at 20 µM [5] [°C] | ΔTm at 20 µM [6] [°C] | ΔTm at 20 µM [7] [°C] | ΔTm at 20 µM [8] [°C] | ΔTm at 20 µM [9] [°C] | ΔTm at 20 µM [10] [°C] | ΔTm at 20 µM [11] [°C] | ΔTm at 20 µM [12] [°C] | Mean NFκB response ([13]; 1 µM, 1,5 h) | Mean NFκB response ([13]; 1 µM, 4,5 h) | Mean NFκB response ([13]; 1 µM, 7,5 h) | Mean NFκB response ([13]; 1 µM, 10,5 h) | Mean NFκB response ([13]; 1 µM, 13,5 h) | Mean NFκB response ([13]; 1 µM, 16,6 h) | Mean NFκB response ([13]; 1 µM, 19,5 h) | Mean NFκB response ([13]; 1 µM, 22,5 h) | also measured
1 | COc1cccc([C@@H](Oc2ccc3c(cnn3-c3ccc(F)cc3)c2)[C@H](C)NC(=O)C(F)(F)F)c1 [AZD5423] | 0.69 and 0.73 and 0.65 and 0.80 | 0.65 fold reporter gene activity and 0.98 fold reporter gene activity and 1.07 fold reporter gene activity | -0.84 | -3.28 | -0.35 | -1.62 | 0.67 | -1.37 | -0.79 | -5.6 | -5.37 | -2.31 | 2076.25 GFP+-cells/confluence ∙ 1000 | 2908.84 GFP+-cells/confluence ∙ 1000 | 5573.87 GFP+-cells/confluence ∙ 1000 | 12373.33 GFP+-cells/confluence ∙ 1000 | 17196.67 GFP+-cells/confluence ∙ 1000 | 21116.67 GFP+-cells/confluence ∙ 1000 | 24016.67 GFP+-cells/confluence ∙ 1000 | 27100.00 GFP+-cells/confluence ∙ 1000 | Mean NFκB response ([13]; 1 µM, 3 h): 2386.46 GFP+-cells/confluence ∙ 1000; Mean NFκB response ([13]; 1 µM, 6 h): 3758.89 GFP+-cells/confluence ∙ 1000; Mean NFκB response ([13]; 1 µM, 9 h): 9073.33 GFP+-cells/confluence ∙ 1000; Mean NFκB response ([13]; 1 µM, 12 h): 14943.33 GFP+-cells/confluence ∙ 1000; Mean NFκB response ([13]; 1 µM, 15 h): 19223.33 GFP+-cells/confluence ∙ 1000; Mean NFκB response ([13]; 1 µM, 18 h): 22723.33 GFP+-cells/confluence ∙ 1000; Mean NFκB response ([13]; 1 µM, 21 h): 25420.00 GFP+-cells/confluence ∙ 1000; Mean NFκB response ([13]; 1 µM, 24 h): 27183.33 GFP+-cells/confluence ∙ 1000; NF-κB activity (inflammatory response to ionomycin/PMA) [13]: consistently delayed and strongly diminished NF-κB activity; ATF6 activity (tunicamycin-induced endoplasmic reticulum stress) [14]: Consistently weaker ATF6 activity; activity at 1 µM [14]: 84%; EC50 [15]: 0.9 ± 0.2 nM; Metabolic activity [MA] [16]: 1.02 and 1.00 and 0.98 and 1.07 and 1.09 and 0.99 and 1.14 and 1.15; Growth rate [GR] [17]: 0.81 and 2.24 and 0.71 and 1.01 and 0.62 and 1.06 and 0.88 and 0.60 and 1.03 and 2.44; Apoptosis induction [AI] [18]: 0.73 and 0.76 and 0.75 and 0.81 and 1.24 and 2.34
2 | C[C@H]1C[C@H]2[C@@H]3CCC4=CC(=O)C=C[C@]4(C)[C@@]3(Cl)[C@@H](O)C[C@]2(C)[C@@]1(O)C(=O)CO [Beclomethasone] | 0.78 and 0.71 and 0.63 and 0.85 | 1.09 fold reporter gene activity and 0.87 fold reporter gene activity and 0.97 fold reporter gene activity | -0.27 | 0.03 | -0.29 | -0.31 | -0.75 | -0.57 | -0.66 | -0.04 | 0.36 | -1.53 | 2314.11 GFP+-cells/confluence ∙ 1000 | 2712.93 GFP+-cells/confluence ∙ 1000 | 3902.54 GFP+-cells/confluence ∙ 1000 | 7904.68 GFP+-cells/confluence ∙ 1000 | 11292.34 GFP+-cells/confluence ∙ 1000 | 14142.72 GFP+-cells/confluence ∙ 1000 | 16024.63 GFP+-cells/confluence ∙ 1000 | 18119.25 GFP+-cells/confluence ∙ 1000 | Mean NFκB response ([13]; 1 µM, 3 h): 2367.97 GFP+-cells/confluence ∙ 1000; Mean NFκB response ([13]; 1 µM, 6 h): 3065.61 GFP+-cells/confluence ∙ 1000; Mean NFκB response ([13]; 1 µM, 9 h): 5609.44 GFP+-cells/confluence ∙ 1000; Mean NFκB response ([13]; 1 µM, 12 h): 9507.58 GFP+-cells/confluence ∙ 1000; Mean NFκB response ([13]; 1 µM, 15 h): 12732.70 GFP+-cells/confluence ∙ 1000; Mean NFκB response ([13]; 1 µM, 18 h): 14975.90 GFP+-cells/confluence ∙ 1000; Mean NFκB response ([13]; 1 µM, 21 h): 16981.30 GFP+-cells/confluence ∙ 1000; Mean NFκB response ([13]; 1 µM, 24 h): 19467.95 GFP+-cells/confluence ∙ 1000; NF-κB activity (inflammatory response to ionomycin/PMA) [13]: consistently delayed and strongly diminished NF-κB activity; ATF6 activity (tunicamycin-induced endoplasmic reticulum stress) [14]: Consistently weaker ATF6 activity; activity at 1 µM [14]: 72%; EC50 [15]: 8 nM; Metabolic activity [MA] [16]: 1.06 and 1.03 (2×) and 0.92 and 0.98 (2×) and 1.01 and 1.10; Growth rate [GR] [17]: 0.71 and 0.34 and 0.95 and 1.09 and 0.91 and 1.08 and 0.81 and 0.17 and 2.51 and -0.30; Apoptosis induction [AI] [18]: 0.38 and 0.63 and 0.67 and 0.78 and 0.69 and 1.03

— paper PMC11790914, “Chemogenomics for steroid hormone receptors (NR3)” (Communications Chemistry, 2025)
